# Where two headings read alike, the source gives them in different places. Marks after values point to notes of the source that are not given here.
# Tests used:
# [1] = test system: human non-small-cell lung cancer cell line A549; test: MTT cell growth inhibition, A549; format: cell-based; details: A549, MTT assay, 72 h, read-out: IC50, growth of tumor cell line
# Source text: (§3) Experimental method: Cell lines (human non-small-cell lung cancer cell line A549, human colon cancer cell line LOVO, human nasopharyngeal carcinoma cell line CNE-2, human liver cancer cell line HepG2, human cervical carcinoma cell line Hela, human breast cancer cell lines MCF-7 and MDA-MB-231, human gastric carcinoma cell line NCI-N87, human prostatic cancer cell lines PC-3 and DU145, human leukemia cell line K562, human melanoma cell line A375, human neuroblastoma cell line SH-SY5H, human promyelocytic leukemia cell line HL-60, 5-FU-resistant human hepatocellular carcinoma cell line BEL-7402/5-Fu, doxorubicin-resistant hepatocellular carcinoma cell line HepG2/ADM, doxorubicin-resistant human breast cancer cell lines MCF-7/ADR) at logarithmic phase were resuspended in RPMI 1640 medium (containing 10% fetal bovine serum, 100 U/mL penicillin-streptomycin). Then, 100 μL of cells (cell concentration was 5×10^5/mL) were seeded into 96 wells plate. After 24 h incubation at 37° C. with 5% CO2, tested compounds were added (the control group without compound) for an additional 72 h incubation. After that, 30 μL of MTT [3-(4,5-Dimethylthiazol-2-yl)-2,5-diphenyltetrazolium bromide] solution (5 mg/mL) was added into each well and incubated for another 4 h at 37° C. and then the formazan crystals were solubilized with 100 μL DMSO. Finally, absorbance of each well was determined at 570 nm by a microplate reader (Thermo).
# (§4) The concentration required to inhibit cell growth by 50% (IC50) was calculated from survival curves.
# [2] = test system: human colon cancer cell line LOVO; test: MTT cell growth inhibition, LOVO; format: cell-based; details: LOVO (FAPα positive), MTT assay, 72 h, read-out: IC50, growth of tumor cell line
# [3] = test system: human nasopharyngeal carcinoma cell line CNE-2; test: MTT cell growth inhibition, CNE-2; format: cell-based; details: CNE-2, MTT assay, 72 h, read-out: IC50, growth of tumor cell line
# Source text: as §3, §4
# [4] = test system: human liver cancer cell line HepG2; test: MTT cell growth inhibition, HepG2; format: cell-based; details: HepG2, MTT assay, 72 h, read-out: IC50, growth of tumor cell line
# Source text: as §3, §4
# [5] = test system: human cervical carcinoma cell line Hela; test: MTT cell growth inhibition, Hela; format: cell-based; details: MTT assay, 72 h, read-out: IC50, growth of tumor cell line
# [6] = test system: human breast cancer cell line MCF-7; test: MTT cell growth inhibition, MCF-7; format: cell-based; details: MCF-7, MTT assay, 72 h, read-out: IC50, growth of tumor cell line
# Source text: as §3, §4
# [7] = test system: human breast cancer cell line MDA-MB-231; test: MTT cell growth inhibition, MDA-MB-231; format: cell-based; details: MDA-MB-231, MTT assay, 72 h, read-out: IC50, growth of tumor cell line
# Source text: as §3, §4
# [8] = test system: human gastric carcinoma cell line NCI-N87; test: MTT cell growth inhibition, NCI-N87; format: cell-based; details: NCI-N87, MTT assay, 72 h, read-out: IC50, growth of tumor cell line
# [9] = test system: human prostatic cancer cell line PC-3; test: MTT cell growth inhibition, PC-3; format: cell-based; details: PC-3, MTT assay, 72 h, read-out: IC50, growth of tumor cell line
# [10] = test system: human prostatic cancer cell line DU145; test: MTT cell growth inhibition, DU-145; format: cell-based; details: DU-145, MTT assay, 72 h, read-out: IC50, growth of tumor cell line
# Source text: as §3, §4
# [11] = test system: human leukemia cell line K562; test: MTT cell growth inhibition, K562; format: cell-based; details: K562, MTT assay, 72 h, read-out: IC50, growth of tumor cell line
# Source text: as §3, §4
# [12] = test system: human melanoma cell line A375; test: MTT cell growth inhibition, A375; format: cell-based; details: A375, MTT assay, 72 h, read-out: IC50, growth of tumor cell line
# [13] = test system: human neuroblastoma cell line SH-SY5H; test: MTT cell growth inhibition, SH-SY5H; format: cell-based; details: MTT assay, 72 h, read-out: IC50, growth of tumor cell line
# Source text: as §3, §4
# [14] = test system: human promyelocytic leukemia cell line HL-60; test: MTT cell growth inhibition, HL-60; format: cell-based; details: HL-60, MTT assay, 72 h, read-out: IC50, growth of tumor cell line
# Source text: as §3, §4
# [15] = test system: 5-FU-resistant human hepatocellular carcinoma cell line BEL-7402/5-Fu; test: MTT cell growth inhibition, BEL-7402/5-Fu; format: cell-based; details: MTT assay, 72 h, read-out: IC50, growth of tumor cell line
# Source text: as §3, §4
# [16] = test system: doxorubicin-resistant hepatocellular carcinoma cell line HepG2/ADM; test: MTT cell growth inhibition, HepG2/ADM; format: cell-based, human; details: MTT assay, 72 h, read-out: IC50, growth of tumor cell line
# Kunming mice = test: Acute toxicity test; format: in vivo; details: injected intraperitoneally
# Experimental: Experimental method: Kunming mice were purchased from Guangdong Medical Experimental Animal Center, weighing 18-22 g, then randomly divided into several groups with 10 mice in each group. Different concentrations of VLB and vinca alkaloid dipeptide derivatives were injected intraperitoneally. Finally, the median lethal dose (LD50) was calculated according to the surviving animals.
# LD50 was measured using the following formula:
# LD50 (mg/kg)=The median lethal dose/body weight
# MDA-MB-231 xenografts = MDA-MB-231 xenografts in nude mice; format: in vivo, BALB/nu/nu mice; details: MDA-MB-231 xenograft nude mice; for Anti-tumor rate (%) / Body weight (g) Post-dose / Tumor weight: 1 mg/kg i.p. every two days, 8 administrations; for Body weight (g) Pre-dose: before dosing
# Experimental: (§1) Experimental method: The MDA-MB-231 cells at logarithmic phase were digested and washed twice with PBS. Then, 100 μL cells (1×10^7) were inoculated subcutaneously on the backs of female BALB/nu/nu mice. After tumors grew to 70˜100 mm^3, the mice were divided randomly into saline group (control group), vinca alkaloids groups (VLB, CCRB, CCFN, CCXJ) and vinca alkaloid derivatives groups (JJ-CCJ, BX-CCJ, JJ-CCRB, BX-CCRB, JJ-CCFN, BX-CCFN, JJ-CCXJ and BX-CCXJ), with six mice per group. 1 mg/kg drugs were injected intraperitoneally every two days, meanwhile body weight and tumor sizes were measured. Experiment was ended after 8 times of drug administration, then tumor and organs were stripped. Tumor volumes were measured using the following formula: V=½(ab^2), whereas a refers to the longest diameter and b is the shortest diameter.
# HepG2 xenografts = HepG2 xenografts in nude mice; format: in vivo; details: HepG2 xenograft nude mice; for Anti-tumor rate (%) / Body weight (g) Post-dose / Tumor weight: 1 mg/kg; for Body weight (g) Pre-dose: before dosing
# Experimental: as §1
# (§2) Tumor xenograft models of HepG2, LOVO, K562 and HL-60 cell lines were performed as the method described above.
# LOVO xenografts = LOVO xenografts in nude mice; format: in vivo; details: LOVO xenograft nude mice; for Anti-tumor rate (%) / Body weight (g) Post-dose / Tumor weight: 1 mg/kg; for Body weight (g) Pre-dose: before dosing
# Experimental: as §1, §2
# K562 xenografts = K562 xenografts in nude mice; format: in vivo; details: K562 xenograft nude mice; for Anti-tumor rate (%) / Body weight (g) Post-dose / Tumor weight: 1 mg/kg; for Body weight (g) Pre-dose: before dosing
# Experimental: as §1, §2
# HL-60 xenografts = HL-60 xenografts in nude mice; format: in vivo; details: HL-60 xenograft nude mice; for Anti-tumor rate (%) / Body weight (g) Post-dose / Tumor weight: 1 mg/kg; for Body weight (g) Pre-dose: before dosing
# Experimental: as §1, §2
# [17] = test system: human normal liver cells LO2; test: MTT cytotoxicity on normal cells, LO2; details: read-out: IC50, cytotoxicity on normal cell line; LO2, MTT assay
# Experimental: (§5) Then, 100 μL of cells (cell concentration was 5×10^5/mL) were seeded into 96 wells plate. After 24 h incubation at 37° C. with 5% CO2, tested compounds were added (the control group without compound) for an additional 72 h incubation. After that, 30 μL of MTT [3-(4,5-Dimethylthiazol-2-yl)-2,5-diphenyltetrazolium bromide] solution (5 mg/mL) was added into each well and incubated for another 4 h at 37° C. and then the formazan crystals were solubilized with 100 μL DMSO. Finally, absorbance of each well was determined at 570 nm by a microplate reader (Thermo).
# (§6) The standard curve was drew with compound concentrations as the abscissa and cell growth inhibition rates as the ordinate. The concentration required to inhibit cell growth by 50% (IC50) was calculated from survival curves.
# (§7) Experimental method: In vitro cytotoxicities of vinca alkaloids, hydrazinolyzed vinca alkaloids and vinca alkaloid dipeptide derivatives on human normal liver cells LO2 and human umbilical vein endothelial cells HUVEC were detected according to the method of Example 2.
# [18] = test system: human umbilical vein endothelial cells HUVEC; test: MTT cytotoxicity on normal cells, HUVEC; details: read-out: IC50, cytotoxicity on normal cell line; HUVEC, MTT assay
# [19] = MTT cytotoxicity on normal cells, LO2; details: human, LO2 cells (human normal liver cells)
# Experimental: as §5, §6, §7
# [20] = MTT cytotoxicity on normal cells, HUVEC; details: human, HUVEC (human umbilical vein endothelial cells)
# [21] = test system: doxorubicin-resistant human breast cancer cell lines MCF-7/ADR; test: MTT cell growth inhibition, MCF-7/ADR; format: cell-based; details: Homo sapiens, NCI/ADR-RES, MTT assay, 72 h, read-out: IC50, growth of tumor cell line
# Source text: as §3, §4
# [22] = Homo sapiens, Neuroblastoma cell
compound,measurement,setting,value
"CCC1(O)CC2CN(CCc3c([nH]c4ccccc34)C(C(=O)OC)(c3cc4c(cc3OC)N(C)C3C(O)(C(=O)NNC(=O)C5CCCN5C(=O)CNC(=O)OCc5ccccc5)C(O)C5(CC)C=CCN6CCC43C65)C2)C1 (stereo not drawn) [BX-CCJ, Z-GP-NHNH-Vinblastine]",IC50,[1],0.0621 ± 0.00387 µM
same,IC50,[2],0.0448 ± 0.00815 µM
same,IC50,[3],0.0527 ± 0.00301 µM
same,IC50,[4],0.0468 ± 0.00117 µM
same,IC50,[5],0.0568 ± 0.00308 µM
same,IC50,[6],0.108 ± 0.00423 µM
same,IC50,[7],0.0642 ± 0.00457 µM
same,IC50,[8],0.103 ± 0.00887 µM
same,IC50,[9],0.0711 ± 0.00197 µM
same,IC50,[10],0.0573 ± 0.00207 µM
same,IC50,[11],0.0117 ± 0.00304 µM
same,IC50,[12],0.0495 ± 0.00453 µM
same,IC50,[13],0.0598 ± 0.00642 µM
same,IC50,[14],0.0855 ± 0.00957 µM
same,IC50,[15],0.179 ± 0.00887 µM
same,IC50,[16],0.146 ± 0.00547 µM
same,LD50 (median lethal dose),Kunming mice,10 mg/kg
same,Anti-tumor rate (%),MDA-MB-231 xenografts,92.34** %
same,Body weight (g) Post-dose,MDA-MB-231 xenografts,21.2 ± 2.1 g
same,Tumor weight,MDA-MB-231 xenografts,0.20 ± 0.12 g
same,Body weight (g) Pre-dose,MDA-MB-231 xenografts,19.8 ± 1.0 g
same,Anti-tumor rate (%),HepG2 xenografts,86.67** %
same,Body weight (g) Post-dose,HepG2 xenografts,22.1 ± 1.3 g
same,Tumor weight,HepG2 xenografts,0.34 ± 0.21 g
same,Body weight (g) Pre-dose,HepG2 xenografts,22.0 ± 1.7 g
same,Anti-tumor rate (%),LOVO xenografts,85.02** %
same,Body weight (g) Post-dose,LOVO xenografts,24.4 ± 1.6 g
same,Tumor weight,LOVO xenografts,0.43 ± 0.38 g
same,Body weight (g) Pre-dose,LOVO xenografts,23.8 ± 1.9 g
same,Anti-tumor rate (%),K562 xenografts,76.79** %
same,Body weight (g) Post-dose,K562 xenografts,23.1 ± 1.4 g
same,Tumor weight,K562 xenografts,0.39 ± 0.27 g
same,Body weight (g) Pre-dose,K562 xenografts,22.3 ± 1.0 g
same,Anti-tumor rate (%),HL-60 xenografts,81.29** %
same,Body weight (g) Post-dose,HL-60 xenografts,20.1 ± 1.0 g
same,Tumor weight,HL-60 xenografts,0.41 ± 0.19 g
same,Body weight (g) Pre-dose,HL-60 xenografts,18.8 ± 1.1 g
same,IC50,[17],0.0963 ± 0.00111 µM
same,IC50,[18],0.129 ± 0.00134 µM
"CC[C@]1(O)C[C@@H]2CN(CCc3c([nH]c4ccccc34)[C@@](C(=O)OC)(c3cc4c(cc3OC)N(C)[C@H]3[C@@](O)(C(=O)NN)[C@H](O)[C@]5(CC)C=CCN6CC[C@]43[C@@H]65)C2)C1 [JJ-CCJ, hydrazinolyzed vinblastine]",IC50,[1]; Homo sapiens,0.00643 ± 0.00242 µM
same,IC50,[2]; Homo sapiens,0.0329 ± 0.00639 µM
same,IC50,[3]; Homo sapiens,0.00714 ± 0.00016 µM
same,IC50,[4]; Homo sapiens,0.0124 ± 0.00072 µM
same,IC50,[5]; Homo sapiens,0.0145 ± 0.00181 µM
same,IC50,"[6]; Homo sapiens, MCF7",0.0239 ± 0.00307 µM
same,IC50,[7]; Homo sapiens,0.00599 ± 0.00329 µM
same,IC50,[8]; Homo sapiens,0.0174 ± 0.0022 µM
same,IC50,[9]; Homo sapiens,0.00627 ± 0.00061 µM
same,IC50,[10]; Homo sapiens,0.00533 ± 0.0006 µM
same,IC50,[11]; Homo sapiens,0.00367 ± 0.00079 µM
same,IC50,"[12]; Homo sapiens, A-375",0.00456 ± 0.00057 µM
same,IC50,[13]; [22],0.00624 ± 0.00131 µM
same,IC50,[14]; Homo sapiens,0.00865 ± 0.00128 µM
same,IC50,"[15]; Homo sapiens, Bel7402/5-FU",0.0803 ± 0.00753 µM
same,IC50,[16]; Homo sapiens,0.0439 ± 0.00377 µM
same,Anti-tumor rate (%),MDA-MB-231 xenografts,87.74** %
same,Body weight (g) Post-dose,MDA-MB-231 xenografts,16.4 ± 1.7 g
same,Tumor weight,MDA-MB-231 xenografts,0.32 ± 0.03 g
same,Body weight (g) Pre-dose,MDA-MB-231 xenografts,20.3 ± 0.7 g
same,Anti-tumor rate (%),HepG2 xenografts,77.65** %
same,Body weight (g) Post-dose,HepG2 xenografts,16.1 ± 0.3 g
same,Tumor weight,HepG2 xenografts,0.57 ± 0.7 g
same,Body weight (g) Pre-dose,HepG2 xenografts,21.7 ± 1.2 g
same,Anti-tumor rate (%),LOVO xenografts,77.71** %
same,Body weight (g) Post-dose,LOVO xenografts,17.3 ± 1.2 g
same,Tumor weight,LOVO xenografts,0.64 ± 0.21 g
same,Body weight (g) Pre-dose,LOVO xenografts,22.8 ± 1.7 g
same,Anti-tumor rate (%),K562 xenografts,68.45** %
same,Body weight (g) Post-dose,K562 xenografts,16.5 ± 0.8 g
same,Tumor weight,K562 xenografts,0.53 ± 0.19 g
same,Body weight (g) Pre-dose,K562 xenografts,22.1 ± 1.9 g
same,Anti-tumor rate (%),HL-60 xenografts,69.23** %
same,Body weight (g) Post-dose,HL-60 xenografts,16.1 ± 0.4 g
same,Tumor weight,HL-60 xenografts,0.64 ± 0.17 g
same,Body weight (g) Pre-dose,HL-60 xenografts,20.1 ± 1.7 g
same,IC50 at 72 h,[19],0.0201 ± 0.00097 µM
same,IC50 at 72 h,[20],0.0361 ± 0.001 µM
"CC[C@]1(O)C[C@H]2CN(CCc3c([nH]c4ccccc34)[C@@](C(=O)OC)(c3cc4c(cc3OC)N(C=O)[C@H]3[C@@](O)(C(=O)OC)[C@H](OC(C)=O)[C@]5(CC)C=CCN6CC[C@]43[C@@H]65)C2)C1 [Vincristine, reference compound]",IC50,[1]; Homo sapiens,0.00132 ± 3e-05 µM
same,IC50,[2]; Homo sapiens,0.00074 ± 9e-05 µM
same,IC50,[3]; Homo sapiens,0.00151 ± 0.00076 µM
same,IC50,[4]; Homo sapiens,0.00097 ± 0.00012 µM
same,IC50,[5]; Homo sapiens,0.00233 ± 0.00077 µM
same,IC50,"[6]; Homo sapiens, MCF7",0.00274 ± 0.00036 µM
same,IC50,[7]; Homo sapiens,0.00103 ± 0.00022 µM
same,IC50,[8]; Homo sapiens,0.00087 ± 0.00026 µM
same,IC50,[9]; Homo sapiens,0.00293 ± 0.00037 µM
same,IC50,[10]; Homo sapiens,0.00117 ± 0.00031 µM
same,IC50,[11]; Homo sapiens,0.00107 ± 0.00033 µM
same,IC50,"[12]; Homo sapiens, A-375",0.00095 ± 0.00016 µM
same,IC50,[13]; [22],0.00134 ± 0.00021 µM
same,IC50,[14]; Homo sapiens,0.00181 ± 0.00017 µM
same,IC50,"[15]; Homo sapiens, Bel7402/5-FU",0.0227 ± 0.00337 µM
same,IC50,[16]; Homo sapiens,0.00778 ± 0.00201 µM
same,IC50,[21],0.00967 ± 0.0022 µM
same,IC50 at 72 h,[19],0.00021 ± 5e-05 µM
same,IC50 at 72 h,[20],0.00042 ± 9e-05 µM

# Source: patent US10377774B2 (JINAN UNIVERSITY, priority 2013, dated 2019)
